Data taken from patent US10633394B2, “Heterocyclic derivatives and use thereof” (C & C RESEARCH LABORATORIES, priority 2014, dated 2020).

Legend:
Assay type in all cases: cell-based
[1] = target: T1, STAT3 (Homo sapiens, UniProt P40763); assay: STAT3 reporter gene (luciferase) assay in LNCaP stable cell line stimulated with IL-6; settings: LNCaP stable cell line (pSTAT3-TA-luc), IL-6 10 ng/mL, 24 hours
T1 construct: plasmid pSTAT3-TA-luc), which contains a stably operating STAT3 promoter; endogenous in cells
T1 sequence (P40763 whole entry): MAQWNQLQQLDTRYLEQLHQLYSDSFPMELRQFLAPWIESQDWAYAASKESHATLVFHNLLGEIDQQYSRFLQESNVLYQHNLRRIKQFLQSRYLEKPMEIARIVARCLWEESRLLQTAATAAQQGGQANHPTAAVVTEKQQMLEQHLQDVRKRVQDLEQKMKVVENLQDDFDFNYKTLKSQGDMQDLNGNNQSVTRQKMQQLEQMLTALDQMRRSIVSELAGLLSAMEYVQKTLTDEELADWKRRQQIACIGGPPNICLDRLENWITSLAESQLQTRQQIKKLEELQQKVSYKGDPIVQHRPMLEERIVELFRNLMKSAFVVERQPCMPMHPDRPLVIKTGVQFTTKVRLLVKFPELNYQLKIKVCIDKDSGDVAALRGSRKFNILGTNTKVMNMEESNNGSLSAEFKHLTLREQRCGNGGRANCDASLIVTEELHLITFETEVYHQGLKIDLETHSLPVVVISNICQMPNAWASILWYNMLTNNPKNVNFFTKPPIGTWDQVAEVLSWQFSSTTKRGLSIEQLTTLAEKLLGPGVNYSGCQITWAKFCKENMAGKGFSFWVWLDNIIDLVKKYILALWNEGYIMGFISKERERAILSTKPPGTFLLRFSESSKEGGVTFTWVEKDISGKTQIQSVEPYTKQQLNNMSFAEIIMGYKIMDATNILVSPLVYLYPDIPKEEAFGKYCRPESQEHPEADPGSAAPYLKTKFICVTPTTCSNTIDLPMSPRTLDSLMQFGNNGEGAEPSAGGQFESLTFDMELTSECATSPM
Description: 1-1) Experiment on the Inhibition of STAT3 Activity
A human prostate cancer cell line (LNCaP stable cell line; plasmid pSTAT3-TA-luc), which contains a stably operating STAT3 promoter, was cultured in RPMI1640 medium (Cat No. 11875, Life Technologies) containing 10% fetal bovine serum (FBS) (Cat No. SH30396, Thermo Scientific) and 150 μg/mL G-418 solution (Cat No. 04 727 894 001, Roche). The reporter gene assay using LNCaP stable cell line was performed in RPMI1640 medium containing 3% DCC-FBS without G-418 solution. LNCaP stable cells were plated in two (2) white 96-well plates with 30,000 cells/50 μL in each well. The cells were cultured at 37° C., under 5% CO2 for 24 hours, and then treated with the compounds listed in Examples which were diluted in various concentrations. Subsequently, IL-6 was added to each well with a final concentration of 10 ng/mL. Upon completion of the treatment with the compounds and IL-6, the cells were cultured at 37° C., under 5% CO2 for 24 hours. The plates were observed under microscope and drug precipitation and particular findings were investigated and recorded.
The luciferase assay and the cell viability assay were performed respectively with one of the two plates. For the luciferase assay, the liquid media in the 96-well plate was removed, and then, 20 μL of passive cell lysis buffer was added to each well. After shaking the plate for 30 minutes, luciferase activities of each well were measured in a PHERAstar™ microplate reader (BMG LABTECH) using a luciferase assay system (Cat No. E1501, Promega). For the cell viability assay, the 96-well plate was placed at room temperature for 30 minutes, added with 20 μL/well of CellTiter-Glo solution (Cat No. G7573, Promega), and shaken for 10 minutes in order to measure cytotoxicity caused by the compounds listed in Examples with a PHERAstar™ microplate reader (BMG LABTECH). Wells without 0.1% DMSO and stimulation were used as a negative control and wells with 0.1% DMSO and stimulation were used as a positive control.
The results of evaluation on the inhibitory effect of the compounds listed in the Examples on the dimerization of STAT3 and STAT1 obtained via the STAT3 and STAT1 reporter gene assays are shown in Table 6 below.

[2] = tested on: NCI-N87; assay: Cell growth inhibition assay (CellTiter-Glo), stomach cancer cell line NCI-N87; settings: Homo sapiens; NCI-N87 cells, 96 hours
Description: (§1) The inhibitory effects of the compounds of the present invention against the growth of cancer cells were evaluated as shown below. The cancer cell lines including stomach cancer cell line (NCI-N87) and breast cancer cell line (MDA-MB-468) were cultured under the protocol provided by each supplier. Each type of cells to be used in experiments was sub-cultured in a 96-well plate by counting the exact number of cells using Tali™ Image-based Cytometer (Life Technologies). In a 96-well plate, NCI-N87 was employed with 5,000 cells/well; and MDA-MB-468 was employed with 10,000 cells/well. The cells were treated with the compounds listed in Examples which were diluted in various concentrations. Upon completion of the compounds treatment, NCI-N87 cells were cultured at 37° C. under 5% CO2 for 96 hours, and MDA-MB-468 cells were cultured at 37° C. in air for 96 hours. Subsequently, the cells were observed under microscope and drug precipitation and particular findings were investigated and recorded. And then, the 96-well plate was placed at room temperature for 30 minutes, added with 20 μL/well of CellTiter-Glo solution (Cat No. G7573, Promega) and shaken for 10 minutes, followed by being subjected to the measurement using PHERAstar™ microplate reader (BMG LABTECH) according to the supplier's general luminometer protocol. Wells where only culture liquid added without cell plating were used as a negative control, whereas wells where culture liquid containing 0.1% DMSO instead of the compounds listed in Examples were used as a positive control.

[3] = tested on: MDA-MB-468; assay: Cell growth inhibition assay (CellTiter-Glo), breast cancer cell line MDA-MB-468; settings: Homo sapiens; MDA-MB-468 cells, 96 hours
Description: as §1

Row | Compound | IC50 [1] [µM] | IC50 [2] [µM] | IC50 [3] [µM]
1 | CS(=O)(=O)C1CCOc2cc3sc(C(=O)Nc4cc(Cl)nc(Oc5ccc(Cl)cc5)c4)cc3cc21 (racemic) [Example 8, N-(2-chloro-6-(4-chlorophenoxy)pyridin-4-yl)-4-(methylsulfonyl)-3,4-dihydro-2H-thieno[3,2-g]chromene-7-carboxamide] | 0.024 | 0.031 | 0.0032
2 | CS(=O)(=O)N1CCOc2cc3sc(C(=O)Nc4cc(Cl)nc(Oc5ccc(Cl)cc5)c4)cc3cc21 [Example 1, N-(2-chloro-6-(4-chlorophenoxy)pyridin-4-yl)-1-(methylsulfonyl)-2,3-dihydro-1H-thieno[3′,2′:4,5]benzo[1,2-b][1,4]oxazine-7-carboxamide] | 0.0026 | 0.0083 | –
3 | CC1(C)CN(S(C)(=O)=O)c2cc3cc(C(=O)Nc4cc(Cl)nc(Oc5ccc(Cl)cc5)c4)sc3cc2O1 [Example 2, N-(2-chloro-6-(4-chlorophenoxy)pyridin-4-yl)-3,3-dimethyl-1-(methylsulfonyl)-2,3-dihydro-1H-thieno[3′,2′:4,5]benzo[1,2-b][1,4]oxazine-7-carboxamide] | 0.17 | 1.2 | –
4 | CS(=O)(=O)N1CCCOc2cc3sc(C(=O)Nc4cc(Cl)nc(Oc5ccc(Cl)cc5)c4)cc3cc21 [Example 3, N-(2-chloro-6-(4-chlorophenoxy)pyridin-4-yl)-1-(methylsulfonyl)-1,2,3,4-tetrahydrothieno[3′,2′:4,5]benzo[1,2-b][1,4]oxazepine-8-carboxamide] | 0.01 | 0.045 | –
5 | CC1(C)CCN(S(C)(=O)=O)c2cc3cc(C(=O)Nc4cc(Cl)nc(Oc5ccc(Cl)cc5)c4)sc3cc21 [Example 4, N-(2-chloro-6-(4-chlorophenoxy)pyridin-4-yl)-8,8-dimethyl-5-(methylsulfonyl)-5,6,7,8-tetrahydrothieno[2,3-g]quinoline-2-carboxamide] | 0.93 | 4.1 | –
6 | CS(=O)(=O)N1CCCc2cc3sc(C(=O)Nc4cc(Cl)nc(Oc5ccc(Cl)cc5)c4)cc3cc21 [Example 6, N-(2-chloro-6-(4-chlorophenoxy)pyridin-4-yl)-5-(methylsulfonyl)-5,6,7,8-tetrahydrothieno[2,3-g]quinoline-2-carboxamide] | 0.003 | 0.0055 | –
7 | CN1CCN(S(C)(=O)=O)c2cc3cc(C(=O)Nc4cc(Cl)nc(Oc5ccc(Cl)cc5)c4)sc3cc21 [Example 7, N-(2-chloro-6-(4-chlorophenoxy)pyridin-4-yl)-4-methyl-1-(methylsulfonyl)-1,2,3,4-tetrahydrothieno[2,3-g]quinoxaline-7-carboxamide] | 0.012 | 0.027 | 0.0065
8 | CS(=O)(=O)C1CCCOc2cc3sc(C(=O)Nc4cc(Cl)nc(Oc5ccc(Cl)cc5)c4)cc3cc21 (stereo not drawn) [Example 9, N-(2-chloro-6-(4-chlorophenoxy)pyridin-4-yl)-5-(methylsulfonyl)-2,3,4,5-tetrahydrothieno[3′,2′:4,5]benzo[1,2-b]oxepine-8-carboxamide] | 0.029 | 0.067 | 0.023
9 | CS(=O)(=O)C1CCCc2cc3sc(C(=O)Nc4cc(Cl)nc(Oc5ccc(Cl)cc5)c4)cc3cc21 (stereo not drawn) [Example 10, N-(2-chloro-6-(4-chlorophenoxy)pyridin-4-yl)-5-(methylsulfonyl)-5,6,7,8-tetrahydronaphtho[2,3-b]thiophene-2-carboxamide] | 0.0026 | 0.006 | 0.0019
10 | CC1(S(C)(=O)=O)CCOc2cc3sc(C(=O)Nc4cc(Cl)nc(Oc5ccc(Cl)cc5)c4)cc3cc21 (stereo not drawn) [Example 11, N-(2-chloro-6-(4-chlorophenoxy)pyridin-4-yl)-4-methyl-4-(methylsulfonyl)-3,4-dihydro-2H-thieno[3,2-g]chromene-7-carboxamide] | 0.006 | 0.01 | 0.0052
11 | CS(=O)(=O)C1COCc2cc3sc(C(=O)Nc4cc(Cl)nc(Oc5ccc(Cl)cc5)c4)cc3cc21 (stereo not drawn) [Example 12, N-(2-chloro-6-(4-chlorophenoxy)pyridin-4-yl)-5-(methylsulfonyl)-5,8-dihydro-6H-thieno[3,2-g]isochromene-2-carboxamide] | 0.003 | 0.0018 | 0.0028
12 | CS(=O)(=O)C1(F)CCOc2cc3sc(C(=O)Nc4cc(Cl)nc(Oc5ccc(Cl)cc5)c4)cc3cc21 (stereo not drawn) [Example 13, N-(2-chloro-6-(4-chlorophenoxy)pyridin-4-yl)-4-fluoro-4-(methylsulfonyl)-3,4-dihydro-2H-thieno[3,2-g]chromene-7-carboxamide] | 0.0081 | 0.025 | 0.0066
13 | CS(=O)(=O)C1CCC(F)(F)c2cc3sc(C(=O)Nc4cc(Cl)nc(Oc5ccc(Cl)cc5)c4)cc3cc21 (stereo not drawn) [Example 14, N-(2-chloro-6-(4-chlorophenoxy)pyridin-4-yl)-8,8-difluoro-5-(methylsulfonyl)-5,6,7,8-tetrahydronaphtho[2,3-b]thiophene-2-carboxamide] | 0.029 | 0.16 | 0.026
14 | Cc1ccc(Oc2cc(NC(=O)c3cc4cc5c(cc4s3)OCCC5S(C)(=O)=O)cc(Cl)n2)cc1 (stereo not drawn) [Example 15, N-(2-chloro-6-(p-tolyloxy)pyridin-4-yl)-4-(methylsulfonyl)-3,4-dihydro-2H-thieno[3,2-g]chromene-7-carboxamide] | 0.018 | 0.035 | 0.0089
15 | CS(=O)(=O)C1CCOc2cc3sc(C(=O)Nc4cc(Cl)nc(Oc5cc(Cl)ccc5F)c4)cc3cc21 (stereo not drawn) [Example 35, N-(2-chloro-6-(5-chloro-2-fluorophenoxy)pyridin-4-yl)-4-(methylsulfonyl)-3,4-dihydro-2H-thieno[3,2-g]chromene-7-carboxamide] | 0.01 | – | –
16 | CS(=O)(=O)C1CCOc2cc3sc(C(=O)Nc4cc(Cl)nc(Oc5cccc(Cl)c5F)c4)cc3cc21 (stereo not drawn) [Example 36, N-(2-chloro-6-(3-chloro-2-fluorophenoxy)pyridin-4-yl)-4-(methylsulfonyl)-3,4-dihydro-2H-thieno[3,2-g]chromene-7-carboxamide] | 0.014 | – | –
17 | Cc1ccc(Oc2cc(NC(=O)c3cc4cc5c(cc4s3)OCCC5S(C)(=O)=O)cc(Cl)n2)cc1Cl (stereo not drawn) [Example 38, N-(2-chloro-6-(3-chloro-4-methylphenoxy)pyridin-4-yl)-4-(methylsulfonyl)-3,4-dihydro-2H-thieno[3,2-g]chromene-7-carboxamide] | 0.0088 | – | –
18 | CS(=O)(=O)C1CCOc2cc3sc(C(=O)Nc4cc(Cl)nc(Oc5ccccc5C(F)(F)F)c4)cc3cc21 (stereo not drawn) [Example 39, N-(2-chloro-6-(2-(trifluoromethyl)phenoxy)pyridin-4-yl)-4-(methylsulfonyl)-3,4-dihydro-2H-thieno[3,2-g]chromene-7-carboxamide] | 0.014 | – | –
19 | CS(=O)(=O)N1CCNc2cc3sc(C(=O)Nc4cc(Cl)nc(Oc5ccc(Cl)cc5)c4)cc3cc21 [Example 50, N-(2-chloro-6-(4-chlorophenoxy)pyridin-4-yl)-1-(methylsulfonyl)-1,2,3,4-tetrahydrothieno[2,3-g]quinoxaline-7-carboxamide] | 0.0082 | 0.0091 | –
20 | CC(C)(c1ccc(Cl)cc1)c1cc(Cl)cc(NC(=O)c2cc3cc4c(cc3s2)OCCN4S(C)(=O)=O)c1 [Example 56, N-(3-chloro-5-(2-(4-chlorophenyl)propan-2-yl)phenyl)-1-(methylsulfonyl)-2,3-dihydro-1H-thieno[3′,2′:4,5]benzo[1,2-b][1,4]oxazine-7-carboxamide] | 0.0028 | 0.019 | –
